According to ChEMBL document CHEMBL5537209, “Teleocidin B-4, a PKC Activator, Upregulates Hypoxia-Inducible Factor 1 (HIF-1) Activity by Promoting the Accumulation of HIF-1α Protein via the PKCα/mTORC Signaling Pathway” (J Nat Prod, 2024):
The source made the active and inactive calls. The rule behind the calls is not given here.

Tests used:
Type in all cases: cell-based
[1] = system: HeLa S3; test: Activation of HIF-1 in human HeLa S3 cells assessed as increase in VEGF mRNA level at 10 ng/ml pretreated with Go6983 for 1 hr followed by 6 hrs incubation under hypoxic condition by real-time quantitative PCR analysis
[2] = system: HeLa; test: Activation of HIF-1 transcriptional activity in human HeLa cells transfected with 5xHRE-Luc/UCHL1 reporter at 10 ng/ml pretreated with torin1 for 1 hr followed by 24 hrs incubation under hypoxia condition by luciferase reporter assay
[3] = system: HeLa; test: Activation of HIF-1 transcriptional activity in human HeLa cells transfected with 5xHRE-Luc/UCHL1 reporter and PKCalpha siRNA at 10 ng/ml incubated for 24 hrs under hypoxia condition by luciferase reporter assay
[4] = system: HeLa S3; test: Activation of PKCalpha/mTORC pathway in human HeLa S3 cells assessed as accumulation of phosphorylated ribosomal protein S6 at 10 ng/ml incubated for 12 hrs under hypoxia condition by Western blotting analysis; conditions: filed as activator
[5] = system: HeLa; test: Activation of HIF-1 transcriptional activity in human HeLa cells transfected with 5xHRE-Luc/UCHL1 reporter at 10 ng/ml pretreated with Go6976 for 1 hr followed by 24 hrs incubation under hypoxic condition by luciferase reporter assay
[6] = system: HeLa S3; test: Activation of HIF-1 in human HeLa S3 cells assessed as increase in HIF-1alpha protein level at 10 ng/ml pretreated with Go6983 for 1 hr followed by 12 hrs incubation under hypoxic condition by Western blotting analysis
[7] = system: HeLa; test: Activation of HIF-1 transcriptional activity in human HeLa cells transfected with 5xHRE-Luc/UCHL1 reporter at 0.1 to 100 ng/ml pretreated with Go6983 for 1 hr followed by 24 hrs incubation under hypoxic condition by luciferase reporter assay; conditions: dose 0.1-100 ng/ml
[8] = system: HeLa; test: Activation of HIF-1 transcriptional activity in human HeLa cells transfected with 5xHRE-Luc/UCHL1 reporter and PKCdelta siRNA at 10 ng/ml incubated for 24 hrs under hypoxia condition by luciferase reporter assay; conditions: filed as activator
[9] = system: HeLa S3; test: Activation of HIF-1 in human HeLa S3 cells assessed as increase in VEGF mRNA level at 0.1 to 10 ng/ml preincubated for 1 hr under normoxic condition followed by 6 hrs incubation under hypoxic condition by real-time quantitative PCR analysis; conditions: filed as activator, dose 0.1-10 ng/ml, time 7.0 hrs
[10] = system: HeLa S3; test: Activation of PKCalpha/mTORC pathway in human HeLa S3 cells transfected with PKCalpha siRNA assessed as accumulation of phosphorylated ribosomal protein S6 at 10 ng/ml incubated for 12 hrs under hypoxia condition by Western blotting analysis
[11] = system: HeLa S3; test: Activation of HIF-1 transcriptional activity in human HeLa S3 cells transfected with 5xHRE-Luc/UCHL1 reporter and PKCalpha siRNA assessed as upregulation of HIF-1alpha protein level at 10 ng/ml incubated for 12 hrs under hypoxia condition by Western blotting assay
[12] = system: HeLa; test: Activation of HIF-1 transcriptional activity in human HeLa cells transfected with 5xHRE-Luc/UCHL1 reporter at 0.1 to 1000 ng/ml preincubated for 1 hr under normoxic condition followed by 24 hrs incubation under hypoxic condition by luciferase reporter assay; conditions: filed as activator, dose 0.1-1000 ng/ml, time 25.0 hrs
[13] = system: HeLa S3; test: Activation of HIF-1 in human HeLa S3 cells assessed as increase in HIF-1alpha protein level at 0.1 to 10 ng/ml preincubated for 1 hr under normoxic condition followed by 12 hrs incubation under hypoxic condition by Western blotting analysis; conditions: filed as activator, dose 0.1-10 ng/ml, time 13.0 hrs
[14] = system: HeLa S3; test: Activation of HIF-1 in human HeLa S3 cells assessed as increase in HIF-1alpha protein level at 10 ng/ml pretreated with MG132 for 1 hr followed by 12 hrs incubation under normoxic condition by Western blotting analysis; conditions: filed as activator
[15] = system: HeLa S3; test: Activation of PKCdelta/mTORC pathway in human HeLa S3 cells transfected with PKCdelta siRNA assessed as accumulation of phosphorylated ribosomal protein S6 at 10 ng/ml incubated for 12 hrs under hypoxia condition by Western blotting analysis; conditions: filed as activator
[16] = system: HeLa S3; test: Activation of HIF-1 in human HeLa S3 cells assessed as increase in VEGF mRNA level at 10 ng/ml preincubated for 1 hr under normoxic condition followed by 6 hrs incubation under hypoxic condition by real-time quantitative PCR analysis; conditions: filed as activator, time 7.0 hrs
[17] = system: HeLa S3; test: Activation of HIF-1 in human HeLa S3 cells assessed as increase in HIF-1alpha protein level at 10 ng/ml preincubated for 1 hr under normoxic condition followed by 12 hrs incubation under hypoxic condition by Western blotting analysis; conditions: filed as activator, time 13.0 hrs
[18] = system: HeLa; test: Activation of HIF-1 transcriptional activity in human HeLa cells transfected with 5xHRE-Luc/UCHL1 reporter at 0.1 to 10 uM preincubated for 1 hr under normoxic condition followed by 24 hrs incubation under hypoxic condition by luciferase reporter assay; conditions: filed as activator, dose 0.1-10 µM, time 25.0 hrs

SMILES	Activity [1]	Activity [2]	Activity [3]	Activity [4]	Activity [5]	Activity [6]	Activity [7]	Activity [8]	Activity [9]	Activity [10]	Activity [11]	Activity [12]	Activity [13]	Activity [14]	Activity [15]	Activity [16]	Activity [17]	Activity [18]
C=C[C@@]1(C)CC[C@](C)(C(C)C)c2cc3c4c(c[nH]c4c21)C[C@@H](CO)NC(=O)[C@H](C(C)C)N3C	inactive	inactive	inactive	Active	inactive	inactive	inactive	Active	Active	inactive	inactive	Active	Active	Active	Active			
CCCCCCCCCCCCCC(=O)O[C@@H]1[C@@H](C)[C@@]2(O)[C@@H](C=C(CO)C[C@]3(O)C(=O)C(C)=C[C@@H]23)[C@@H]2C(C)(C)[C@]12OC(C)=O			inactive	Active	inactive			Active		inactive	inactive	Active		Active	Active	Active	Active	
C[C@H]1[C@@H]2C[C@@]3(O[C@H](CCC3(C)C)CC(=O)O[C@@H](CO)CC(=O)O2)O[C@@H]1CCCCc1cccc(O)c1																		Active
